# According to US12433855B2, “Method of inhibiting gram-negative bacterial quorum signalling molecules using the macrocycle pillar[5]arene” (AALTO UNIVERSITY FOUNDATION SR, priority 2018, dated 2025):
# “Also recorded” adds a separate entry of the source.
# Assays:
# [1] = Binding of HSLs having carbon chains of different lengths
# Pseudomonas aeruginosa = assay: Pyocyanin assay; format: cell-based; settings: for production of pyocyanin: 24 hours of growth, OD695
# From the text: In testing the functionality of P[5]a as an actual quorum sensing inhibitor a pathogenic Gram-negative bacterium, Pserudomonas aeruginosa, which contains the LasI synthase that produces the 3-oxo-C12 HSL, was used.
# P. aeruginosa utilizes multiple quorum sensing systems (Las, Rhl and Pqs). The Las system is at the top of a cascade that leads to the activation of the other quorum sensing systems, and is directly responsible for the production of the green toxin pyocyanin. Pyocyanin is a toxin produced by Pseudomonas aeruginosa, and the production is directly activated by the 3-oxo-C12 HSL. Pyocyanin is responsible for the death of cells in the lung during cystic fibrosis. Thus, the production of this toxin is related directly to the C12 Las AHL signal in a quorum-based response.
# Bacterial cells were cultured for 24 hours in Luria Broth (LB) medium with […] added. Then, the culture fluid was separated from the cells and measured at OD695 (this measures the amount of green color).
# In a pyocyanin assay, the effect of varying concentrations of a P[5]a (4,9,14,19,24,26,28,30,32,34-Deca[2-(trimethylaminio)ethoxy]hexacyclo[21.2.2.2^3,6.2^8,11.2^13,16.2^18,21]pentatriaconta-1(25),3,5,8,10,13,15,18,20,23,26,28,30,32,34-pentadecaene⋅10bromide, CAS No. 1351445-28-7) on the production of pyocyanin after 24 hours of growth was studied and the results are shown in FIG. 12.
# A549 cells [2] = assay: Viability of A549 cells, trypan blue staining; format: cell-based, human; settings: different concentrations of P[5]a, with vs without
# Protocol: (§1) To assess the possible toxicity of P[5]a on the lung cells, two independent viability tests were performed. First, the viability of A549 cells grown in the presence of different concentrations of P[5]a was determined using trypan blue staining. […] Subsequently, the CellTox Green Cytotoxicity Assay (Promega) was carried out for A549 cells grown with and without P[5]a, in the presence or absence of PAO1 P. aeruginosa strain. […] This was not observed for cells grown with the addition of P[5]a in the growth medium.
# A549 cells [3] = assay: CellTox Green Cytotoxicity Assay; format: cell-based, human
# Protocol: as §1
# [4] = test system: A549 cells infected with P. aeruginosa; assay: Gene expression (total RNA) of A549 cells infected with P. aeruginosa; format: cell-based, human
# Protocol: In order to further study the influence of P[5]a on the eukaryotic cells, total RNA was isolated from A549 cells infected with P. aeruginosa in the presence or absence of 100 nM or 2.5 mM P[5]a. The expression of 46 genes were affected strongly enough to meet our stringent criteria and be considered as differentially expressed during the infection with PAO1.
# [5] = Stability and dissolution in water; format: physicochemical
molecule,measurement,setting,value
"O=S(=O)(O)c1cc2c(O)c(c1)Cc1cc(S(=O)(=O)O)cc(c1O)Cc1cc(S(=O)(=O)O)cc(c1O)Cc1cc(S(=O)(=O)O)cc(c1O)C2 [4-sulfocalix[4]arene, 25,26,27,28-Tetrahydroxycalix[4]arene-5,11,17,23-tetrasulfonic acid]",binding to N-acyl-homoserine lactones (AHLs),[1],found to bind
"C1COCCOCCOCCOCCO1 [15-crown-5, 1,4,7,10,13-Pentaoxacyclopentadecane]",binding to N-acyl-homoserine lactones (AHLs),[1],found to bind
"C[N+](C)(C)CCOc1cc2c(OCC[N+](C)(C)C)cc1Cc1cc(OCC[N+](C)(C)C)c(cc1OCC[N+](C)(C)C)Cc1cc(OCC[N+](C)(C)C)c(cc1OCC[N+](C)(C)C)Cc1cc(OCC[N+](C)(C)C)c(cc1OCC[N+](C)(C)C)Cc1cc(OCC[N+](C)(C)C)c(cc1OCC[N+](C)(C)C)C2.[Br-].[Br-].[Br-].[Br-].[Br-].[Br-].[Br-].[Br-].[Br-].[Br-] [P[5]a, 4,9,14,19,24,26,28,30,32,34-Deca[2-(trimethylaminio)ethoxy]hexacyclo[21.2.2.2^3,6.2^8,11.2^13,16.2^18,21]pentatriaconta-1(25),3,5,8,10,13,15,18,20,23,26,28,30,32,34-pentadecaene⋅10bromide]",cellular growth,Pseudomonas aeruginosa; P. aeruginosa culture,not affected at all
same,production of pyocyanin,Pseudomonas aeruginosa; higher concentrations of P[5]a,complete inhibition; also recorded: completely inhibit toxin production
same,production of pyocyanin,Pseudomonas aeruginosa; no or low concentrations of P[5]a,no significant differences
same,viability of A549 cells (trypan blue),A549 cells [2],no significant difference
same,increase in fluorescence (indicator of cell death),"A549 cells [3]; A549 cells grown with P[5]a, absence of PAO1",not observed
same,cell death during infection with PAO1 strain,"A549 cells [3]; A549 cells infected with PAO1 P. aeruginosa, P[5]a in growth medium",reduction in cell death in a dose dependent manner
same,overexpression of differentially expressed genes during infection,"[4]; 100 nM or 2.5 mM P[5]a, PAO1 infection",reduced the overexpression of many of the differentially expressed genes
same,"expression of CXCL1, CXCL8, CCL20 and ICAM1","[4]; 100 nM or 2.5 mM P[5]a, PAO1 infection, dose-dependent",significantly reduced
same,expression of adrenomodullin (ADM) and colony stimulating factor 2 (CSF2),[4]; P[5]a added to infected A549 culture,further overexpression
same,binding to N-acyl-homoserine lactones (AHLs),[1],found to bind
same,selectivity of AHL binding by chain length,[1],selectively bind long-chained N-acyl-homoserine lactones
same,dissolution in water,[5],easily dissolved
same,stability,[5],very good stability
"OC[C@H]1O[C@@H]2O[C@H]3[C@H](O)[C@@H](O)[C@@H](O[C@H]4[C@H](O)[C@@H](O)[C@@H](O[C@H]5[C@H](O)[C@@H](O)[C@@H](O[C@H]6[C@H](O)[C@@H](O)[C@@H](O[C@H]7[C@H](O)[C@@H](O)[C@@H](O[C@H]1[C@H](O)[C@H]2O)O[C@@H]7CO)O[C@@H]6CO)O[C@@H]5CO)O[C@@H]4CO)O[C@@H]3CO [alpha-cyclodextrin, Alpha-cyclodextrin]",binding to N-acyl-homoserine lactones (AHLs),[1],found to bind
"O=C1N2CN3C(=O)N4CN5C(=O)N6CN7C(=O)N8CN9C(=O)N%10CN%11C(=O)N%12CN1C1C2N2CN%13C(=O)N(CN%14C(=O)N(CN%15C(=O)N(CN%16C(=O)N(CN%17C(=O)N(CN1C2=O)C%12C%11%17)C%10C9%16)C8C7%15)C6C5%14)C4C3%13 (stereo not shown) [cucurbit[6]uril, Cucurbit[6]uril hydrate]",binding to N-acyl-homoserine lactones (AHLs),[1],found to bind
"OC[C@H]1O[C@@H]2O[C@H]3[C@H](O)[C@@H](O)[C@@H](O[C@H]4[C@H](O)[C@@H](O)[C@@H](O[C@H]5[C@H](O)[C@@H](O)[C@@H](O[C@H]6[C@H](O)[C@@H](O)[C@@H](O[C@H]7[C@H](O)[C@@H](O)[C@@H](O[C@H]8[C@H](O)[C@@H](O)[C@@H](O[C@H]9[C@H](O)[C@@H](O)[C@@H](O[C@H]1[C@H](O)[C@H]2O)O[C@@H]9CO)O[C@@H]8CO)O[C@@H]7CO)O[C@@H]6CO)O[C@@H]5CO)O[C@@H]4CO)O[C@@H]3CO [gamma-cyclodextrin, Gamma-cyclodextrin]",binding to N-acyl-homoserine lactones (AHLs),[1],found to bind
Resorcin[4]arene,binding to N-acyl-homoserine lactones (AHLs),[1],found to bind
